Test results: article PMC9666555, “Genuine selective caspase-2 inhibition with new irreversible small peptidomimetics” (Cell Death & Disease, 2022)
Non-standard residues stand in square brackets, D forms with d. Residues, ends and D or L forms follow the SMILES beside them. ξ: configuration not given here. *: point of attachment. ξTHIQ1CO(6-Me) = Cc1ccc2c(c1)CCNC2C(=O)O; X1 = O=C(O)CC(N*)C(=O)COc1c(F)cccc1F; Quinaldoyl = O=C(c1ccc2ccccc2n1)*

Key:
Type in all cases: biochemical
[1] = biological target: T1, human active recombinant Caspase-3 (Homo sapiens, UniProt P42574); experiment: In vitro caspase activity and inhibition assay (IC50), Caspase-3; details: 30 min preincubation; 0.1 nM Caspase-3, 10 µM Ac-DEVD-AMC; read-out: Enzyme assays Casp3 IC50 (converted)
T1 sequence (P42574 29-175 limits assumed): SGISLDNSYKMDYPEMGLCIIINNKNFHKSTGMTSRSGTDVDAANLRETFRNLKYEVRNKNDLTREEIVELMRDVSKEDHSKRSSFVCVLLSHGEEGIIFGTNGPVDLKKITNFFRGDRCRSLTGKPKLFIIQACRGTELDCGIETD
T1 sequence (P42574 176-277 limits assumed): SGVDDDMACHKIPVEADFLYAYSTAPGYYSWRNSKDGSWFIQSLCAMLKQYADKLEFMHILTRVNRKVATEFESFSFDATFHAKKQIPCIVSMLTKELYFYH
Protocol: The human active recombinant Caspase-3 (#707-C3) was purchased from R&D Systems (Minneapolis, USA). […] Stock solutions were stored at −80 °C. […] Caspase inhibitors were solubilized in DMSO at 10 mM and stored at −80 °C.
Initial velocity (V0) was determined from the linear portion of the progress curve. The composition of the activity buffer was: 20 mM HEPES, pH 7.4; 0.1% CHAPS, 5 mM DTT, 2 mM EDTA; 800 mM sodium succinate for Caspase-2 (0.2 nM) with 25 µM of Ac-VDVAD-7-amino-3-methylcoumarin (AMC) and 20 mM HEPES, pH 7.4; 0.1% CHAPS, 5 mM DTT, 2 mM EDTA; supplemented with 1 mg/mL of stabilizing agent bovine serum albumin (BSA) for Caspase-3 (0.1 nM) with 10 μM of Ac-DEVD-AMC. Compounds (0.001–100 µM) were tested in duplicate for each inhibitor concentration to detect their inhibitory potential. Enzymes and compounds were incubated for 30 min before initiating enzymatic reaction by adding substrate. Initial rates determined in control experiments (V0) were considered as 100% of the caspase activity; initial rates that were below 100% in the presence of tested compound (Vi) were considered as inhibition. The inhibitory activity of compounds was expressed as IC50 (Inhibitor concentration giving 50% inhibition). The values of IC50 were calculated by fitting the experimental data using Mars data Analysis 2.0 and KaleidaGraph software.1 %Inhibition=1001−Vi/V0=100I0/IC50+I0

Kallikrein-8 = biological target: T2, Kallikrein-8 (Homo sapiens, UniProt O60259); experiment: Non-caspase enzyme assay, Kallikrein-8; details: concentrations up to 10 µM
T2 construct: purchased R&D Systems 2025-SE-010
T2 sequence (O60259 33-260): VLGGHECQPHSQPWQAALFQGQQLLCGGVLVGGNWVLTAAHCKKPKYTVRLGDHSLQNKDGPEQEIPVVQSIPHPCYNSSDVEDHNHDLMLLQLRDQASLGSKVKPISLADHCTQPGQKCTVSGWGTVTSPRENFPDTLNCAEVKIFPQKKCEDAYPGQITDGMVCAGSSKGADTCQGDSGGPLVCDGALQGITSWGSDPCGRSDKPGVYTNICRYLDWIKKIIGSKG
Protocol: (§1) Stock solutions were stored at −80 °C. […]
(§2) Non-caspase enzyme assays
(§3) The human pro- kallikrein-1 (pro-hK1) was activated in a buffer containing: Tris-HCl 50 mM, CaCl2 10 mM, NaCl 150 mM, Brij-35 0,05% pH 7,5. Human pro-kallikrein-6 and -8 (pro-hK6 and 8 were activated using Lysyl-endopeptidase (Wako- BioProducts®) at a 1/500 weight ratio, in a buffer containing 50 mM Tris and 0,05% Brij-35 (pH 8). Kinetics using non-caspase enzymes for selectivity studies were done according to the following conditions.
(§4) Enzymes Substrates Buffers
(§5) Cathepsine B (0.2 nM) z-RR-AMC 20 µM Acétate de sodium 0,1 M; EDTA 1mM ; […]
(§6) Cathepsine L (1.2 nM) RLR-AMC 25 µM Acétate de sodium 0,1 M; EDTA 1mM ; […]
(§7) Cathepsine D (0.1 nM) Mca-Gly-Ly s-Pro-Ile-Leu-Phe-Phe- Citrate de Sodium 0,1 M; EDTA 2 mM ; Arg-Leu-Lys(Dnp)-D-Arg-NH2 10 µM Brij-35 0,01%; pH 4 hK1 (4 nM) Boc-VPR-AMC 100µM Tris 50mM; Citrate 1M; Brij-35 0.05%; pH7 hK6 (2 nM ) Boc-QAR -AMC 100 µM Tris 50mM; Citrate 1M; Brij-35 0.05%; pH7 hK8 (1 nM) Boc-VPR-AMC 100µM Tris 50mM; Citrate 1M; Brij-35 0.05%; pH7
(§8) Thrombine (10 mU/mL) Boc-VPR-AMC 100µM Tris 50mM; Citrate 1M; Brij-35 0.05%; pH7 Plasmine (4 nM ) Boc-QAR -AMC 100µM Tris 50mM; Citrate 1M; Brij-35 0.05%; pH7 Trypsine (0.1 nM) Boc-QAR -AMC 100µM Tris 50mM; Citrate 1M; Brij-35 0.05%; pH7

Kallikrein-6 = biological target: T3, Kallikrein-6 (Homo sapiens, UniProt Q92876); experiment: Non-caspase enzyme assay, Kallikrein-6; details: concentrations up to 10 µM
T3 construct: purchased R&D Systems 5164-SE-010
Protocol: as §1, §2, §3, §4, §5, §6, §7, §8

Thrombin = biological target: T4, Thrombin (Homo sapiens, UniProt P00734); experiment: Non-caspase enzyme assay, Thrombin; details: concentrations up to 10 µM
T4 construct: The human active Plasmin, Thrombin, and Trypsin; purchased Sigma-Aldrich
Protocol: as §1, §2, §3, §4, §5, §6, §7, §8

Compound | IC50 [1] [nM] | effect on Kallikrein-8 (Kallikrein-8) | effect on Kallikrein-6 (Kallikrein-6) | effect on Thrombin (Thrombin)
Cc1ccc2c(c1)CCN(C(=O)[C@@H](NC(=O)[C@H](CC(=O)O)NC(=O)[C@@H](NC(=O)c1ccc3ccccc3n1)C(C)C)C(C)C)C2C(=O)NC(CC(=O)O)C(=O)COc1c(F)cccc1F (stereo partly drawn) [LJ2, Quinolin-2-carbonyl-VDV-(methyl-isoquinolyl)-D-CH2-O(2,6F2)Ph] (Quinaldoyl-VDV[ξTHIQ1CO(6-Me)]-X1) | 140 ± 5 |  |  | 
CC(C)[C@H](NC(=O)c1ccc2ccccc2n1)C(=O)N[C@@H](CC(=O)O)C(=O)N[C@H](C(=O)N1CC[C@H](CC(C)(C)C)[C@@H]1C(=O)NC(CC(=O)O)C(=O)COc1c(F)cccc1F)C(C)C (stereo partly shown) [LJ3a] |  | very limited or no effect | very limited or no effect | very limited or no effect
